These are literature values, as cited in patent publication US20140134693A1, “Eliminating the Need of Acidification in Bioethanol Production” (Anitox Corporation, priority 2012, published 2014).

Read-outs that look alike come from different tables or passages of the source.

In data set [1] the test system is Lactobacillus. The following applies: 600 mg/L.
Data set [2] has as its system Lactobacillus.
The subject of a further data set is bacteria. The following applies: sugarcane ethanol production.
Data set [3] relates to Most bacteria, with the exception of Lactobacillus casei. The following applies: ethanol fermentation process.

`O=C(O)CCC(=O)O` [Succinic acid]: the “reduction of Lactobacillus levels” value is 78% with Lactobacillus [1] and “up to 96%” in the data set on Lactobacillus [1] (in the presence of ethanol). In the case of `NC(N)=O.OO` [Urea hydrogen peroxide], in the data set with Lactobacillus [2], the “bactericidal activity against Lactobacillus (in words)” value was “excellent bactericidal activity”. As to `CC1(C)S[C@@H]2[C@H](NC(=O)[C@H](N)c3ccccc3)C(=O)N2[C@H]1C(=O)O` [ampicillin], the bacteria resistant in the data set with bacteria is listed as 97%.

On to `OO` [hydrogen peroxide], for which the concentration controlling bacteria in data set [3] is 1 to 10 mM. With penicillin, the bacteria resistant in the data set on bacteria was 97%. For the compound virginiamycin, the bacteria resistant in the data set on bacteria was 48%.
